Test results reported in patent US8877773B2, “Methods for treating chronic obstructive pulmonary disease” (Indiana University Research and Technology Corporation, priority 2009, dated 2014).

Experiments:
Format in all cases: in vivo, rat
[1] = tested on: rats exposed to hypercarbic gas; experiment: Hypercarbic gas (20% CO2) challenge: open-field test; conditions: 30 mg/kg i.p.
Method: On day 1, rats (n=3/group) were selected from their home cages and placed into experimental cages containing atmospheric air. […] Fecal pellets were counted in cages at the end of gas challenges. In order to assess anxiety-like behavioural responses following exposure to hypercarbic gas, rats were immediately transferred to an adjacent room and place in the center square of an open-field box for a 5 min test. On day 2, the experiment was repeated, but the treatments were reversed for each rat. For instance, rats that received atmospheric gas challenge on day 1 received the hypercapnic gas challenge on day 2.
(§1) The open-field arena covered an area of 90 cm×90 cm, with 40 cm high walls. The open-field arena was divided into a 6×6 grid of equally-sized squares using black tape (36 total squares) with 4 squares forming the center; 12 squares forming the middle perimeter; and 20 squares forming the outer perimeter. The test started by placing a rat in the center. The behavior of each rat in the open-field arena was recorded on video and scored afterwards by an observer (PLJ) blind to the experimental treatment of each rat. Time spent in each region of the open-field was recorded. In addition, locomotor activity was assessed by counting the number of times the rat's entire body (excluding tail) completely crossed into another square.
All rats received hypercarbic gas infusions as described in detail in Experiment 11. […] Blood pressure, heart rate, locomotor activity, number of fecal pellets and anxiety-like behavior were assessed as described in Experiment 11.
Dependent variables for analyses of cardiovascular responses (HR, MAP) and locomotor activity were analysed using a […], using gas infusion as the between-subjects factor and time as a within-subjects factor. Dependent variables for the number of fecal pellets and open-field anxiety test (i.e., time spent in each section, line crossings) were analysed using a one-way ANOVA with gas infusion in Experiment 11 and drug treatment in Experiment 12 as the between-subjects factors. […] Within-subjects comparisons were also made on the MAP and HR measures using a Dunnett's test for multiple comparisons with a single control using the 5 Min baseline measurement as the control. The alpha level was set at 0.05 in all cases.

FG-7142 treated rats = experiment: FG-7142-induced anxiety: open field, social interaction and elevated plus maze tests; conditions: Wistar rats
Method: All experiments were conducted on adult male Wistar rats (250-300 g) purchased from Harlan Laboratories (Indianapolis, Ind. USA) and were housed individually in plastic cages under standard environmental conditions (22° C.; 12/12 light/dark cycle; lights on at 7:00 A.M.) for 7-10 days prior to the surgical manipulations. Food and water were provided ad libitum.
as §1, with “centre;” for “center;”, “centre.” for “center.”, “observer” for “observer (PLJ)”
Following the OFT, the experimental rat was placed in an open field (0.9 m long×0.9 m wide with walls 0.3 m high) with an untreated novel partner rat. A video camera was fixed above the box, and all behavioral tests were videotaped. During the 5 min test the total amount of time the treated rat initiates interaction with the partner rat is recorded (sniffing, grooming etc.) as described previously. Videotaped sessions were scored at a later time by a SDF (blind to treatments) and a decrease in total interaction time was taken as an increase in “anxiety” like behavior.
Following the SI test, rats were place in the center area of the EPM where the two arms intersect. Unlike the SI test, the EPM measures many relevant anxiety related behaviors such as: no. of poke and full entries into and duration spent in closed versus open arm. […] Activity is measured using […] state of the art photobeams (16× beams and 16 Y beams) to provide the highest resolution system available (Automated EPM, Hamilton Kinder Scientific, San diego, CA).

[2] = tested on: panic-prone (1-AG treated) rats; experiment: Sodium lactate (NaLac) challenge in panic-prone rats: open field test; conditions: 30 mg/kg i.p. 30 min prior to NaLac, experiment 5
Method: The open-field arena covered an area of 0.9 m×0.9 m, with 0.4 m high walls. The open-field arena was divided into a 6×6 grid of equally-sized squares using black tape (36 total squares) with 4 squares forming the centre; 12 squares forming the middle perimeter; and 20 squares forming the outer perimeter. The test started by placing a rat in the centre. The behavior of each rat in the open-field arena was recorded on video and scored afterwards by an observer blind to the experimental treatment of each rat. Time spent in each region of the open-field was recorded.
In experiments 4-6, rats were made panic vulnerable with 1-AG. […] In experiment 5, baseline in an open field (OF) behavior test of anxiety was assessed (n=8) prior to 1-AG infusions. […] In experiment 7, control rats (no 1-AG or NaLac treatment) were assessed in a SI test.
All adult male Sprague-Dawley rats were anesthetized and surgically implanted with telemetrical probes to measure cardiovascular activity prior to and during lactate infusions. After a 3 day recovery, baseline open field behavior was assessed (n=8), then rats were anaesthetized and had osmotic minipumps (previously filled with 1-AG) stereotaxically implanted unilaterally into the DMH. […] Immediately following the lactate challenge, the rats were assessed for anxiety using the open field test.

In the case of Cc1nc2ccc(NC(=O)Nc3ccnc4cccnc34)cc2o1 [SB334867, N-(2-Methyl-6-benzoxazolyl)-N′-1,5-naphthyridin-4-yl urea], the “time spent in the center of open field after hypercarbic gas” value ([1]; between groups) is reported as “No differences”, the “time spent in the outer perimeter of open field after hypercarbic gas” value ([1]; between groups) is reported as “No differences” and the “hypercapnic gas-induced anxiety responses” value ([1]; 20% CO2/normoxic gas) is reported as “attenuated”. The “time in the middle perimeter region of open field after hypercarbic gas” value ([1]; SB/CO2 vs Veh/CO2 group) was “significantly more time”, the “time in open arms of elevated plus maze” value (FG-7142 treated rats; FG-7142 7.5 mg/kg ip, with or without SB334867 30 mg/kg ip) was “higher time in open arms” and the “FG-7142-induced anxiety behavior in the social interaction test” value (FG-7142 treated rats; SB334867 30 mg/kg ip followed by FG-7142 7.5 mg/kg ip) was “blocked”. The “FG-7142 induced anxiety in the open field test” value (FG-7142 treated rats; SB334867 30 mg/kg ip followed by FG-7142 7.5 mg/kg ip, 15 min after FG-7142) was “appeared to have attenuated” and the “anxiety-like responses (decreased time spent in center of open field) after NaLac challenge” value [2] was “attenuated”.
